According to ChEMBL document CHEMBL1122846, “Design and synthesis of new transition-state analogue inhibitors of aspartate transcarbamylase” (J Med Chem, 1985):

test: Compound is evaluated for inhibition of aspartate transcarbamoylase (ATCase).; parameters: species or system Escherichia coli

SMILES | Ki
O=C(O)CC(SCP(=O)(O)O)C(=O)O (configuration not stated) | 1100 µM

test: Compound is evaluated for inhibition of aspartate transcarbamoylase (ATCase); parameters: species or system Escherichia coli

Ki | SMILES
2300 µM | O=C(O)CC(C[S+]([O-])CP(=O)(O)O)C(=O)O (configuration not stated)
2 µM | O=C(O)CC(OC(=O)CP(=O)(O)O)C(=O)O (configuration not stated)
500 µM | O=C(O)CC(NS(=O)(=O)CP(=O)(O)O)C(=O)O (configuration not stated)
430 µM | O=C(O)CC(CSCP(=O)(O)O)C(=O)O (configuration not stated)
650 µM | O=C(O)CC(CS(=O)(=O)CP(=O)(O)O)C(=O)O (configuration not stated)
0.03 µM | O=C(O)CC(NC(=O)CP(=O)(O)O)C(=O)O (configuration not stated) [SPARFOSIC ACID]
